Test results reported in US20140288077A1, “SUBSTITUTED 4-PHENOXYPHENOL ANALOGS AS MODULATORS OF PROLIFERATING CELL NUCLEAR ANTIGEN ACTIVITY” (ST. JUDE CHILDREN'S RESEARCH HOSPITAL, priority 2011, published 2014).
Read-outs that look alike come from different tables or passages of the source.

Legend:
[1] = tested on: U2OS cells; experiment: Growth of cells after treatment with cisplatin and T2AA and release (Alamar Blue); conditions: cisplatin alone up to 10 μM, FIG. 28B
Procedure: The cells were treated with drugs as indicated in a black (transparent flat bottom) 384-well or 96-well plate. Cellular viability was determined by using Alamar Blue reagent (Invitrogen) on an EnVision plate reader according to the manufacturer's recommendations and normalized with signal from wells of DMSO treatment=100% and of no cells=0%.
Viability of the cells was measured by Alamar Blue reagent, and signals were normalized with those of no cell well (0%) and cells with no drugs (100%). NT, no treatment. Error bars, S.D.

[2] = tested on: U2OS cells; experiment: γH2AX staining by flow cytometry, T2AA and cisplatin; conditions: single agent, 18 h, FIG. 28A
Procedure: For γH2AX staining, cells were cultured at 4×10^5 cells/well of 12-well plates in 1 ml of medium, treated with drugs as indicated, trypsin-lifted and stained by using the FlowCellect H2A.X DNA Damage kit (FCCH025142, Millipore) according to the manufacturer's recommendations. All samples were filtered through 40-μm nylon mesh prior to running flow cytometry.
NT, no treatment. Error bars, S.D.

[3] = tested on: U2OS cells; experiment: U2OS cell viability with cisplatin and test compound (AlamarBlue, 4 days); assay type: cell-based; conditions: cisplatin alone up to 10 μM, FIG. 21
Procedure: U2OS cells were cultured in DMEM in a 384-well plate (3000 cells/20 μL per well), treated with indicated dilution of cisplatin (see FIG. 21) and each indicated test compound (15 μM; 20 μL per well in DMEM), and cultured for 4-days. AlamarBlue reagent (Invitrogen, 4 μL per well) was added and signals were read per manufacturer's recommendation. Signals of wells contains no cells and cells with no drugs served as 0% and 100% viability, respectively.

[4] = tested on: HeLa cells; experiment: CellTiter-Glo cell viability assay with cisplatin; assay type: cell-based; conditions: increasing concentration of compound, 24 or 48 hours, FIG. 9
Procedure: Cell viability was determined using CellTiter-Glo® Luminescent Cell Viability Assay (Promega Corporation, Madison, Wis.). Cell viability assays were carried out in 384-well plates after cells were treated for 24 or 48 hours with the disclosed compounds.

[5] = tested on: DNA polymerase present in a CHO lysate; experiment: In vitro translesion DNA synthesis past a cisplatin adduct; assay type: biochemical; conditions: FIG. 8
Description: In a further experiment, an in vitro […] DNA polymerization assay was used (e.g. see Hoffman, et al., Proc Natl Acad Sci USA (1996) 93(24), 13766-9). The assay measures the ability of DNA polymerase present in a CHO lysate to catalyze synthesis of a DNA strand past a cisplatin adduct in an oligonucleotide template. The data in FIG. 8 outline the assay approach in the upper panel, and the gel electrophoresis data are shown in the lower panel. […] The negative control lanes (right side of gel image showing the levels of DMSO contributed by the compound) show not effect on DNA synthesis.

[6] = tested on: HeLa cells; experiment: Cisplatin-induced DNA double-strand breaks (gH2Ax positive cells) by flow cytometry; assay type: cell-based; conditions: with cisplatin, dose-dependent, FIG. 7
[7] = molecular target: T1, human PCNA recombinant protein (Homo sapiens, UniProt P12004); experiment: Fluorescent polarization assay: competition with 5-FAM-labeled PL peptide for PCNA; assay type: binding
T1 construct: The full length human PCNA; made in house; host or cells: Escherichia coli BL21(DE3)
T1 sequence (P12004 whole entry): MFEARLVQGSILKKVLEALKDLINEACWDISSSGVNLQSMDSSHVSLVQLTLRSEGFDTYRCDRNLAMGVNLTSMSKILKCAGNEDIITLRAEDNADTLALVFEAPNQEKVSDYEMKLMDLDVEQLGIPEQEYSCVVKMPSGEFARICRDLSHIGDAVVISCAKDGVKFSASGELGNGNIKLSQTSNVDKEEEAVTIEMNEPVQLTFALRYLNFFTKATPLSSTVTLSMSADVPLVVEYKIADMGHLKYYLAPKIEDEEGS
Description: To determine the binding of the disclosed compounds to the human PCNA recombinant protein, a fluorescence polarization assay was employed. The assay is based on competition between a fluorescent tracer and increasing amounts of competing compound, i.e. a disclosed compound, determined as fluorescence polarization intensity (mP). The fluorescent tracer was 5-carboxyfluorescein (5-FAM) labeled PL peptide (“FAM-PL”). […] PCNA was a recombinant protein purified using standard methods known to one skilled in the art using an expression construct obtained from Dr. Toshiki Tsurimoto, Kyusyu University, Japan.
The volumes of PCNA and FAM-PL were adjusted to ensure that the final concentration of PCNA was 200 nM and FAM-PL was 10 nM. Assays were carried out in 384 well plates in a total volume of about 20-30 μL. […] Fluorescence measurements were made immediately after dilution in the assay plate. […] FP values (P) were calculated in millipolarization units (mP),
where I∥ and I⊥ are the emission intensities recorded, respectively, in the parallel and perpendicular directions relative to the plane of excitation polarization, after background intensity correction. G-factor values (G) for the fluorescein spectral window were measured using 1 nM fluorescein.
Alternatively, the fluorescent polarization assay can be carried out as described in the following. […] Briefly, 20 μl of the assay solution was transferred into each well of a black 384-well plate using Wellmate (Matrix). […] The negative control in each plate was DMSO, whereas the positive control was unlabeled PL-peptide as a self-competitor. […] FP values were calculated in millipolarization units. All data processing was performed using in-house programs in the Pipeline Pilot (Accelrys, version 7.0.1). The quality of the primary screen was assessed by Z-prime and other screening quality metrics.

[8] = molecular target: PCNA/full-length p21 interaction (Homo sapiens, UniProt P12004); experiment: Pull-down competition assay: PCNA captured by immobilized full-length p21-His6; conditions: FIG. 5, gel electrophoresis
Chain of PCNA/full-length p21 interaction (P12004 whole entry): as above
Procedure: A H is protein interaction pull-down kit (Thermo Scientific) was used, in which a 4:1 mixture of TBS and lysis buffer provided in the kit was used as the buffer throughout. For immobilizing p21, 100 μg of p21His6 was incubated overnight at 4° C. with 25 μl (50% suspension) of prewashed cobalt chelate resin in 500 μl of the buffer and washed with the buffer four times. […] After the mixture was incubated overnight at 4° C., the resin was washed with buffer four times, and the bound proteins were eluted with 100 μl of the buffer containing 400 mM imidazole. Each 10 μl of the eluted samples was analyzed by SDS-PAGE with Oriole fluorescent gel stain (BioRad) and a Fluor Chem imager (Alpha Innotech).

[9] = Table 2, inhibition of FAM-PL peptide binding to PCNA, read-out: IC50

N.N.[Cl][Pt][Cl] [cisplatin, reference compound]
U2OS cell growth [1]: not significantly affected
γH2AX level (DNA damage response) [2]: significantly induced γH2AX
U2OS cell growth [3]: not significantly affected

N[C@H](CO)Cc1cc(I)c(Oc2ccc(O)cc2)c(I)c1 [(S)-T2AA, (S)-4-(4-(2-amino-3-hydroxypropyl)-2,6-diiodophenoxy)phenol]
cell viability for a given concentration of cisplatin [4]: greater loss of cell viability
DNA synthesis past the cisplatin adduct (TLS product) [5]: inhibits
cisplatin-induced DNA double-strand breaks (gH2Ax positive cells) [6]: at least a doubling

O=C(CCc1cc(I)c(Oc2ccc(O)c(C(=O)Nc3ccccc3)c2)c(I)c1)NCCO [MLAF-007, 2-Hydroxy-5-(4-(3-((2-hydroxyethyl)amino)-3-oxopropyl)-2,6-diiodophenoxy)-N-phenylbenzamide]
IC50 [7, 9]: 0.4 µM

NCCc1cc(I)c(Oc2ccc(O)cc2)c(I)c1 [MLAG-087, 4-(4-(2-aminoethyl)-2,6-diiodophenoxy)phenol]
IC50 [7]: 0.9 µM

NC[C@@H](N)Cc1cc(I)c(Oc2ccc(O)cc2)c(I)c1 [SWUA_017, (S)-4-(4-(2,3-diaminopropyl)-2,6-diiodophenoxy)phenol]
IC50 [7, 9]: 2.5 µM

COc1ccc(NC(=O)Cc2cc(I)c(Oc3ccc(O)c(I)c3)c(I)c2)cc1 [MLAE-029-7, 2-(4-(4-Hydroxy-3-iodophenoxy)-3,5-diiodophenyl)-N-(4-methoxyphenyl)acetamide]
IC50 [7, 9]: > 50 µM

CNC(=O)Cc1cc(I)c(Oc2ccc(O)cc2)c(I)c1 [MLAG-066-1, 2-(4-(4-hydroxyphenoxy)-3,5-diiodophenyl)-N-Methylacetamide]
IC50 [7, 9]: 8.3 µM

CCCCCNC(=O)Cc1cc(I)c(Oc2ccc(O)c(I)c2)c(I)c1 [MLAE-029-9, 2-(4-(4-Hydroxy-3-iodophenoxy)-3,5-diiodophenyl)-N-pentylacetamide]
IC50 [7, 9]: > 50 µM

CS(=O)(=O)NC(=O)CCc1cc(I)c(Oc2ccc(O)cc2)c(I)c1 [MLAE-038, 3-(4-(4-hydroxyphenoxy)-3,5-diiodophenyl)-N-(methylsulfonyl)propanamide]
IC50 [7, 9]: 20 µM
level of PCNA captured by His6 p21 [8]: decreased significantly
